The values that follow are results of earlier work, collected in US20170224670A1, “Drug Combination to Treat Melanoma” (Exelixis, Inc., priority 2014, published 2017).

In this data set the test system is BRAF mutation-associated melanomas. The conditions noted are these: from initial use, patients taking the drug.

Bounds are passed on as bounds.

Turning to `CCCS(=O)(=O)Nc1ccc(F)c(C(=O)c2c[nH]c3ncc(-c4ccc(Cl)cc4)cc23)c1F` [vemurafenib], the “Time to development of resistance, on average” value is ≤ 7 months.
